# From ChEMBL document CHEMBL1201862, “PubChem BioAssay data set” (2004)
#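 Values below derive from 48-hour exposures of cells grown in 96-well plates, with endpoints linearly interpolated between the two concentrations bracketing the appropriate inhibition level. Abbreviation: GI50, concentration required for 50% inhibition of growth.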 Calls of active or inactive are those of the source. Rule as the data show it: active = GI50 up to about 1.1 µM and inactive = higher.
# How the values were obtained:
# Test in all cases: growth of human tumour cells (NCI), 48 h
# [1] = system: MDA-MB-231
# [2] = system: NCI-H23
# [3] = system: MDA-MB-435
# [4] = system: M14
# [5] = system: DU-145
# [6] = system: SF-295
# [7] = system: OVCAR-8
# [8] = system: HL-60
# [9] = system: LOX IMVI
# [10] = system: UO-31
# [11] = system: K562
# [12] = system: MCF7
# [13] = system: SNB-19
# [14] = system: RPMI-8226
# [15] = system: PC-3
# [16] = system: NCI-H460
# [17] = system: SK-MEL-28
# [18] = system: SR
# [19] = system: COLO 205
# [20] = system: UACC-62
# [21] = system: NCI-H522
# [22] = system: HT-29
# [23] = system: HOP-92
# [24] = system: A549
# [25] = system: SF-539
# [26] = system: KM12
# [27] = system: SW-620
# [28] = system: BT-549
# [29] = system: NCI-H226
# [30] = system: CCRF-CEM
# [31] = system: MDA-N
# [32] = system: SK-MEL-2
# [33] = system: SF-268
# [34] = system: RXF 393
# [35] = system: T47D
# [36] = system: HCT-15
# [37] = system: IGROV-1
# [38] = system: SK-OV-3
# [39] = system: MOLT-4
# [40] = system: HCT-116
# [41] = system: Malme-3M
# [42] = system: OVCAR-3
# [43] = system: ACHN
# [44] = system: Hs-578T
# [45] = system: SNB-75
# [46] = system: NCI/ADR-RES
# [47] = system: OVCAR-5
# [48] = system: EKVX
# [49] = system: HCC 2998
# [50] = system: SK-MEL-5
# [51] = system: CAKI-1
# [52] = system: 786-0
# [53] = system: SN12C
# [54] = system: OVCAR-4
# [55] = system: UACC-257
# [56] = system: U-251
# [57] = system: TK-10
# [58] = system: HOP-62
compound,measurement,setting,value
O=C(c1ccccc1)c1c(C(F)(F)F)[n+]([O-])c2cc(Cl)c(Cl)cc2[n+]1[O-],GI50,[1],0.229 µM (active)
same,GI50,[2],0.565 µM (active)
same,GI50,[3],1.41 µM (inactive)
same,GI50,[4],0.968 µM (active)
same,GI50,[5],0.45 µM (active)
same,GI50,[6],3.21 µM (inactive)
same,GI50,[7],2.65 µM (inactive)
same,GI50,[8],0.789 µM (active)
same,GI50,[9],0.41 µM (active)
same,GI50,[10],1.47 µM (inactive)
same,GI50,[11],2.24 µM (inactive)
same,GI50,[12],0.557 µM (active)
same,GI50,[13],1.56 µM (inactive)
same,GI50,[14],0.373 µM (active)
same,GI50,[15],1.18 µM (inactive)
same,GI50,[16],1.15 µM (inactive)
same,GI50,[17],2.86 µM (inactive)
same,GI50,[18],0.175 µM (active)
same,GI50,[19],2.93 µM (inactive)
same,GI50,[20],3.97 µM (inactive)
same,GI50,[21],0.557 µM (active)
same,GI50,[22],0.473 µM (active)
same,GI50,[23],7.01 µM (inactive)
same,GI50,[24],0.736 µM (active)
same,GI50,[25],1.5 µM (inactive)
same,GI50,[26],0.548 µM (active)
same,GI50,[27],0.619 µM (active)
same,GI50,[28],1.39 µM (inactive)
same,GI50,[29],3.02 µM (inactive)
same,GI50,[30],0.467 µM (active)
same,GI50,[31],1.79 µM (inactive)
same,GI50,[32],3.32 µM (inactive)
same,GI50,[33],0.671 µM (active)
same,GI50,[34],1.82 µM (inactive)
same,GI50,[35],1.45 µM (inactive)
same,GI50,[36],0.535 µM
same,GI50,[37],0.473 µM (active)
same,GI50,[38],4.8 µM (inactive)
same,GI50,[39],0.643 µM (active)
same,GI50,[40],0.528 µM (active)
same,GI50,[41],1.72 µM (inactive)
same,GI50,[42],0.403 µM (active)
same,GI50,[43],0.764 µM (active)
same,GI50,[44],0.849 µM (active)
same,GI50,[45],1.31 µM (inactive)
same,GI50,[46],2.21 µM (inactive)
same,GI50,[47],1.69 µM (inactive)
same,GI50,[48],3.27 µM (inactive)
same,GI50,[49],2.16 µM (inactive)
same,GI50,[50],2 µM (inactive)
same,GI50,[51],1.58 µM (inactive)
same,GI50,[52],0.502 µM (active)
same,GI50,[53],0.658 µM (active)
same,GI50,[54],1.56 µM (inactive)
same,GI50,[55],0.243 µM (active)
same,GI50,[56],1.23 µM (inactive)
same,GI50,[57],1.07 µM (active)
same,GI50,[58],0.357 µM (active)
COC(=O)C1=C(C)NC(C)=C(C(=O)OC)C1c1cccc(/[N+]([O-])=C/c2ccccc2)c1,GI50,[1],17.5 µM (inactive)
same,GI50,[2],33.3 µM (inactive)
same,GI50,[3],19.7 µM (inactive)
same,GI50,[4],18.6 µM (inactive)
same,GI50,[5],78 µM (inactive)
same,GI50,[6],> 100 µM (inactive)
same,GI50,[7],17.5 µM (inactive)
same,GI50,[8],15.3 µM (inactive)
same,GI50,[9],33.7 µM (inactive)
same,GI50,[10],34.2 µM (inactive)
same,GI50,[11],> 10 µM (inactive)
same,GI50,[12],17.8 µM (inactive)
same,GI50,[13],> 100 µM (inactive)
same,GI50,[14],24.4 µM (inactive)
same,GI50,[15],46.7 µM (inactive)
same,GI50,[16],97.9 µM (inactive)
same,GI50,[17],17.5 µM (inactive)
same,GI50,[18],21.8 µM (inactive)
same,GI50,[19],16.8 µM (inactive)
same,GI50,[20],28.5 µM (inactive)
same,GI50,[21],16.4 µM (inactive)
same,GI50,[22],28.3 µM (inactive)
same,GI50,[23],23.4 µM (inactive)
same,GI50,[24],> 100 µM (inactive)
same,GI50,[25],> 100 µM (inactive)
same,GI50,[26],> 100 µM (inactive)
same,GI50,[27],21.3 µM (inactive)
same,GI50,[28],16.3 µM (inactive)
same,GI50,[29],> 100 µM (inactive)
same,GI50,[30],11 µM (inactive)
same,GI50,[31],17.6 µM (inactive)
same,GI50,[32],75 µM (inactive)
same,GI50,[33],69.5 µM (inactive)
same,GI50,[34],16.4 µM (inactive)
same,GI50,[35],17.3 µM (inactive)
same,GI50,[36],17.1 µM
same,GI50,[37],74.3 µM (inactive)
same,GI50,[38],> 100 µM (inactive)
same,GI50,[39],23.2 µM (inactive)
same,GI50,[40],16.7 µM (inactive)
same,GI50,[41],16.3 µM (inactive)
same,GI50,[42],17.4 µM (inactive)
same,GI50,[43],17.1 µM (inactive)
same,GI50,[44],42.1 µM (inactive)
same,GI50,[45],41.7 µM (inactive)
same,GI50,[46],23.2 µM (inactive)
same,GI50,[47],> 100 µM (inactive)
same,GI50,[48],72.8 µM (inactive)
same,GI50,[49],> 100 µM (inactive)
same,GI50,[50],> 100 µM (inactive)
same,GI50,[51],18.1 µM (inactive)
same,GI50,[52],17.7 µM (inactive)
same,GI50,[53],> 10 µM (inactive)
same,GI50,[54],16.5 µM (inactive)
same,GI50,[55],19 µM (inactive)
same,GI50,[56],> 100 µM (inactive)
same,GI50,[57],38.9 µM (inactive)
same,GI50,[58],> 100 µM (inactive)
